# Entries after “also recorded” stand apart in the source; their conditions may differ.
# Key:
# [1] = system: lysyl-tRNA synthetase (KRS); test: KRS expression after shRNA transfection (Western blotting); type: cell-based, homo sapiens; settings: HCT116 cells transfected with KRS shRNA plasmid DNA
# From the text: Particularly, the cell line wherein KRS expression was suppressed was constructed by transfecting cells with lysyl-tRNA synthetase MISSION® shRNA plasmid DNA (Sigma, USA). At this time, the said KRS was homo sapiens lysyl-tRNA synthetase (transcript variant 1, mRNA sequence: NM_001130089.1). This KRS includes […] long exon 1˜15. Among the purchased KRS shRNA plasmid DNAs, shKRS-0 (SEQ. ID. NO: 1) targets 1581˜1604 bp (exon 12) of KRS, shRKS-1 (SEQ. ID. NO: 2) targets 437˜459 bp (exon 3˜4), shKRS-2 (SEQ. ID. NO: 3) targets 911˜933 bp (exon 7), and shKRS-5 (SEQ. ID. NO: 4) targets 1071˜1092 bp (exon 8). TRC1.5-pLK0.1-puro was used as the expression vector. Selection was performed by using puromycin to establish stable cell lines.
# Western blotting was performed to investigate whether or not the KRS expression was inhibited in the spheroidically aggregated cells of the KRS knock-out cell lines constructed by the method of Example <2-1>.
# [2] = system: HCT116 spheroidically aggregated cells; test: Dissemination of cells from spheroidically aggregated cells in three-dimensional collagen gel (time-lapse microscope); type: cell-based, human
# Procedure: Particularly, 2.5 mg/Ml of collagen containing cells was loaded in the magnetic 4-well chamber (Live Cell Instrument, Korea) for the culture system of time-lapse microscope, and the collagen was hardened in a 37° C. incubator for 30 minutes. When the collagen was fully solidified, PRMI-1640 supplemented with 10% FBS was added thereto. The magnetic chamber containing three-dimensional collagen gel and its corresponding adaptor were placed on the time-lapse microscope, followed by setting the multi-position. […] 5% CO2 incubator. Culture medium was added thereto every 6 hours in order for the collagen not to be dried. At this time, it is important to maintain the focus not to be changed. […]
# As confirmed in the result of Example 14, when the HCT116 parental cells were treated with TGFβ1, the dissemination of cells from the spheroidically aggregated cells and migration thereof were observed. When the KRS knock-out cell line was treated with TGFβ1, the dissemination of cells was not observed. […] When the extracellular signal-regulated kinase (ERKs) inhibitor U0126 was treated to the HCT116 parental cells, it was presumed to be negative effect on the dissemination and migration of cells. To verify above, 50 μM of U0126, the ERKs inhibitor, was treated to the cell line, followed by observation of cell dissemination and migration by real-time live imaging of the spheroidically aggregated cells.
# HCT116 cells = test: EMT marker protein expression in two-dimensional culture treated with cytokines (Western blotting); type: cell-based, human; settings: 10% FBS
# Procedure: Particularly, the cell line cultured in a two-dimensional environment with 10% serum was washed with PBS twice, followed by reaction at 4° C. for 15 minutes in 200 μl of lysis buffer [50 mM Tris-HCl, pH 7.4, 1% NP-40, 0.25% sodium deoxycholate, 150 mM NaCl, 1 mM EDTA] supplemented with SDS, Na3O4V, and protease inhibitor cocktails (GenDepot, USA). The cells were collected and centrifuged at 4° C. at 13000×g for 30 minutes. The supernatant was transferred in a new microcentrifuge tube, followed by protein quantification using BCA reagent (Thermo Scientifics, USA). To the quantified sample was added 4× sample buffer [100% glycerol 4 ml, Tris-HCl, pH 6.8, 2.4 ml, SDS 0.8 g, bromophenol blue 4 mg, β-mercaptoethanol 0.4 ml, H2O 3.1 ml (total 10 Ml)], which was boiled at 100° C. for 5 minutes. The prepared sample was treated with the primary antibodies of ZO-1 (Zymed, USA), β-catenin (Santa Cruz, USA), and E-cadherin by the same manner as described in Example <1-2>.
# To observe the surrounding microenvironmental factors in a two-dimensional culture environment over the time, the culture fluid supplemented with 10% FBS was additionally treated with such cytokines as TNFα and TGFβ, followed by investigation of the expression of the epithelial marker protein that can be an index for cell-cell adhesion by the same manner as described in Example <3-1>.
# [3] = TGFβ1, normal HCT116 and KRS over-expressing cell line
substance,measurement,setting,value
"shKRS-0: KRS MISSION shRNA plasmid DNA (Sigma), SEQ. ID. NO: 1, targets 1581˜1604 bp (exon 12) of KRS (DNA CCGGCCTGGAAGTGACTTGCATCAACTCGAGTTGATGCAAGTCACTTCCAGGTTTTTG)",KRS expression,[1],KRS inhibiting effect
TGFβ1: the most representative multifunctional and EMT inducing cytokine,formation of invasive protrusion,"[2]; TGFβ1, 36 hours, HCT116 parental cells and KRS over-expressing cell lines",not observed
same,dissemination of cells from spheroid cells,"[2]; TGFβ1, HCT116 parental cells and KRS over-expressing cell lines",observed
same,cell migration,"[2]; TGFβ1, KRS knock-out cell line",significantly decreased
same,dissemination of cells,"[2]; TGFβ1, KRS knock-out cell line",not and not observed
same,epithelial marker protein like occludin (ZO-1 and occludin) expression,HCT116 cells; KRS knock-out cell line,increase; also recorded: up-regulated
same,fibronectin expression,HCT116 cells; KRS knock-out cell line,reduced; also recorded: down-regulated; also recorded: decrease
same,fibronectin expression,HCT116 cells; [3],up-regulated
same,occludin or ZO-1 expression,HCT116 cells; [3],down-regulated
"shKRS-2: KRS MISSION shRNA plasmid DNA (Sigma), SEQ. ID. NO: 3, targets 911˜933 bp (exon 7) of KRS (DNA CCGGCCAGAGATACTTGGACTTGATCTCGAGATCAAGTCCAAGTATCTCTGGTTTTTG)",KRS expression,[1],KRS inhibiting effect
"shKRS-5: KRS MISSION shRNA plasmid DNA (Sigma), SEQ. ID. NO: 4, targets 1071˜1092 bp (exon 8) of KRS (DNA CCGGGCCTTTCATCACTTATCACAACTCGAGTTGTGATAAGTGATGAAAGGCTTTTTG)",KRS expression,[1],KRS inhibiting effect
TNFα,formation of invasive protrusion,"[2]; TNFα, 36 hours, HCT116 parental cells, KRS over-expressing cell line and KRS knock-out cell line",increased
same,dissemination of cells from the cell mass and cell migration,"[2]; TNFα, 36 hours, parental, KRS over-expressing and KRS knock-out cell lines (regardless of KRS expression)",observed
same,epithelial marker protein like occludin (ZO-1 and occludin) expression,HCT116 cells; KRS knock-out cell line,increased
same,fibronectin expression,HCT116 cells; KRS knock-out cell line,reduced
same,expression of the epithelial marker protein,"HCT116 cells; TNFα, normal HCT116 and KRS over-expressing cell line",not changed

# Source: patent US20160146815A1, “METHOD FOR SCREEING CANCER METASTASIS INHIBITOR USING CULTURE OF CELLS OR SPHEROIDICALLY AGGREGATED CELLS IN WHICH LYSYL-TRNA SYNTHETASE IS REGULATED TO BE EXPRESSED OR UNEXPRESSED” (Medicinal Bioconvergence Research Center, priority 2013, published 2016)
